For assay [1], the target named is T1, rhDLL3-Fc (Homo sapiens, UniProt Q9NYJ7).
T1 construct: The recombinant DLL3 ectodomain (rhDLL3-Fc) was biotinylated; Fc
T1 sequence (Q9NYJ7 27-492 limits assumed): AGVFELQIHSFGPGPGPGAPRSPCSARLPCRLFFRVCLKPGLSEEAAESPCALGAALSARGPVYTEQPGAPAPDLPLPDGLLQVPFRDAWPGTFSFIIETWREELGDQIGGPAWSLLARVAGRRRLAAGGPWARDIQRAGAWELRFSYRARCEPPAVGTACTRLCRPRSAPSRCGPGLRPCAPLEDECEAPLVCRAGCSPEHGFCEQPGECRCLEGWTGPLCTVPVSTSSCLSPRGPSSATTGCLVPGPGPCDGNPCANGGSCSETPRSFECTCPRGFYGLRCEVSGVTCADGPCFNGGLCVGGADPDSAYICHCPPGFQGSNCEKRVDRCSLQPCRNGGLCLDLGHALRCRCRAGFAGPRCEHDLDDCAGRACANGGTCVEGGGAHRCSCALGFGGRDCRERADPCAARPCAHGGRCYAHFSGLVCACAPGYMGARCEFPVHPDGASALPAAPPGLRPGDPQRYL
Put plainly: SPR binding / off-rate screening (Biacore T200). The settings on record: for binding to rhDLL3-Fc, complex half-life: single point SPR. Here is the method:
[…] The recombinant DLL3 ectodomain (rhDLL3-Fc) was biotinylated using EZ-Link Sulfo-NHS-LC-LC-Biotin Kit according to the manufacturer's protocol (Pierce by Thermo Fisher Scientific). The recombinant protein was incubated with an excess of NHS-LC-LC Biotin ester, in a molar ratio of 1:3 (protein: biotin), at 25° C. for 90 min. The un-reacted biotin ester was removed by subsequent buffer exchange on 0.5 ml Zeba spin desalting columns 7K MWCO (Pierce by Thermo Fisher Scientific).
The off-rate screening of the peptides was done using a Biacore T200 instrument (Cytiva, Sweden). […] Sensorgrams were analyzed by Biacore T200 Evaluation Software 3.0 (Cytiva, Sweden): specific binding was obtained by subtracting unspecific binding to naked biosensors and a zero analyte concentration made of binding assay buffer (double referencing). […]

In assay [2] the target is T2, recombinant DLL3 ectodomain (rhDLL3-Fc) (Homo sapiens, UniProt Q9NYJ7).
T2 construct: The recombinant DLL3 ectodomain (rhDLL3-Fc) was biotinylated; Fc
T2 sequence (Q9NYJ7 27-492 limits assumed): T1 sequence (Q9NYJ7 27-492 limits assumed)
The assay can be described thus: Binding kinetic assay using Bio-layer interferometry (BLI). The settings on record: for binding mode to DLL3: peptides at 20, 4 and 0.8 μM, fit to 1:1 Langmuir binding model; for affinity: wider dose-response 10×KD to 0.1×KD. Here is the method:
Binding kinetic assays were performed using Bio-layer interferometry (BLI) technology. The recombinant DLL3 ectodomain (rhDLL3-Fc) was biotinylated using EZ-Link Sulfo-NHS-LC-LC-Biotin Kit according to the manufacturer's protocol (Pierce by Thermo Fisher Scientific). The recombinant protein was incubated with an excess of NHS-LC-LC Biotin ester, in a molar ratio of 1:3 (protein: biotin), at 25° C. for 90 min. The un-reacted biotin ester was removed by subsequent buffer exchange on 0.5 ml Zeba spin desalting columns 7K MWCO (Pierce by Thermo Fisher Scientific).

Setting [3] is: Table 8, curve fitting of SPR sensorgrams, read-out: koff.
Setting [4] is: Table 8, curve fitting of SPR sensorgrams, read-out: kon.
Setting [5] is: Table 4, ± values from three independent experiments, read-out: RT (residence time) (converted).
[6] abbreviates: range over the seven peptides, read-out: residence time.

Where two headings read alike, the source gives them in different places. Numbered stars: 1 amine (or outer) side, 2 acyl side, 3 side chain; on linkers, the order of the positions; unused ones are H or OH. Bridge positions count the residues as written; N and C are the ends. Primed or numbered codes have the meaning given here. Peptide text beside a SMILES is read from it. I, II: the chains in the order shown. * marks the point of attachment. X8 = NC(=O)[C@H](CCCCNC(=O)CCOCCOCCOCCOCCNC(=O)CCOCCOCCOCCN(CCOCCOCCOCCC(=O)NCCOCCOCCOCCOCCC(=O)NCCCC[C@H](NC(=O)CCC(=O)NCCCOCCOCCOCCCN[*:2])C(N)=O)C(=O)CNC(=O)CCOCCOCCOCCOCCNC(=O)CCC(=O)N1Cc2ccccc2C#Cc2ccccc21)NC(=O)CCC(=O)NCCCOCCOCCOCCCN[*:1]; X15 = NC(=O)[C@H](CCCCNC(=O)CCOCCOCCOCCN(CCOCCOCCOCCC(=O)NCCCC[C@H](NC(=O)CCC(=O)NCCCOCCOCCOCCCN[*:2])C(N)=O)C(=O)CNC(=O)CCOCCOCCOCCOCCNC(=O)CCC(=O)N1Cc2ccccc2C#Cc2ccccc21)NC(=O)CCC(=O)NCCCOCCOCCOCCCN[*:1]; X1 = NC(=O)[C@H](CCCCNC(=O)CCOCCOCCOCCOCCNC(=O)CCC(=O)N1Cc2ccccc2C#Cc2ccccc21)NC(=O)CCC(=O)NCCCOCCOCCOCCCN*; K(PEG4-DBCO-FEA) = Lys whose side chain carries PEG4-DBCO conjugated to fluoroethylazide (FEA); Ttds(4) = trioxatridecan-succinamic acid (linker), O=C(CCC(=O)[*:2])NCCCOCCOCCOCCCN[*:1]; Ttds(3) = Trioxatridecan-succinamic acid linker, O=C(CCC(=O)[*:2])NCCCOCCOCCOCCCN[*:1]

`CC(=O)N[C@@H](C)C(=O)N[C@@H](CCC(=O)O)C(=O)N[C@H](C(=O)N[C@H](C(=O)N[C@@H](CCC(=O)O)C(=O)N[C@@H](Cc1ccccc1)C(=O)N[C@@H](Cc1c[nH]c2ccccc12)C(=O)N[C@@H](Cc1c[nH]c2ccccc12)C(=O)N[C@H]1CSSC[C@@H](C(=O)N[C@H](C(=O)N[C@@H](Cc2c[nH]c3ccccc23)C(=O)NCC(=O)NCC(=O)NCCCOCCOCCOCCCNC(=O)CCC(=O)N[C@@H](CCCCNC(=O)CCOCCOCCOCCOCCNC(=O)CCC(=O)N2Cc3ccccc3C#Cc3ccccc32)C(N)=O)[C@@H](C)O)NC(=O)[C@H]([C@@H](C)O)NC(=O)[C@H](Cc2c[nH]c3ccccc23)NC(=O)[C@H](CC(N)=O)NC(=O)[C@H](CCC(=O)O)NC(=O)[C@H](CO)NC(=O)[C@H](CC(N)=O)NC(=O)CNC(=O)[C@H](CC(N)=O)NC1=O)C(C)C)[C@@H](C)O` [PepSP1462] (Ac-AETVEFWWCNGNSENWTCTWGG-X1; disulfide 9-18 (inferred)): in assay [1], the koff came out at 0.0014 s⁻¹ and the kon was found to be 230000 M⁻¹ s⁻¹.

“[Ac-AETVEFWWCNGNSENWTCTW-GG-Ttds-K(PEG4-PEG3)]2-PEG4-DBCO-FEA [PepSP1582]”: in assay [1], the “binding to rhDLL3-Fc, complex half-life” value is on record as “tight rhDLL3-Fc binders with a stable complex half-life”.

Turning to “[Ac-AETVEFWWCNGNSENWTCTW-GG-Ttds-K(PEG3)]2-PEG4-DBCO-FEA (Ac-AETVEFWWCNGNSENWTCTWGG-{Ttds(4)-K(PEG3)}; not fully specified (bridges); printed as [Ac-AETVEFWWCNGNSENWTCTW-GG-Ttds-K(PEG3)]2-PEG4-DBCO-FEA; cysteine pairing not given here; also: dimer linked via PEG4-DBCO-FEA) [PepSP1581]”, the “binding to rhDLL3-Fc, complex half-life” value in assay [1] is “tight rhDLL3-Fc binders with a stable complex half-life”.

`CCCCOCCOCCOCCC(=O)CCCCCCCCCCCCCCCC(=O)CCC(=O)NCCCOCCOCCOCCCNC(=O)CCC(=O)CCCCC[C@@H](CC(=O)CCC(=O)NCCCOCCOCCOCCCNC(=O)CNC(=O)CNC(=O)[C@@H](Cc1c[nH]c2ccccc12)NC(=O)[C@H](CC(=O)[C@H]1CCCC[C@@H](CN[C@@H](Cc2c[nH]c3ccccc23)NC(=O)[C@@H](Cc2c[nH]c3ccccc23)NC(=O)[C@H](CC(=O)[C@@H](CCC(=O)O)CC(=O)[C@H](CC(=O)[C@](C)(NC(=O)[C@@H](CCC(C)=O)CC(=O)CCC(C)=O)C(C)C)C(C)C)Cc2ccccc2)C(=O)C[C@H](CC(C)=O)C(=O)NCC(=O)NC(CC(C)=O)C(=O)C[C@H](CC)C(=O)NC(CCC(C)=O)C(=O)C[C@H](CC(C)=O)C(=O)CC(Cc2c[nH]c3ccccc23)C(=O)C[C@H]([C@H](C)O)C(=O)C1)[C@H](C)O)C(C)=O` (stereo partly drawn) [PepSP1489]: the koff in assay [1] (setting [3]) came out at 0.00037 s⁻¹. For the same molecule, in assay [1] (setting [4]), the association rate constant (kon) amounted to 110000 M⁻¹ s⁻¹.

“I: Ac-AETVEFWWCNGNSENWTCTWGG / II: Ac-AETVEFWWCNGNSENWTCTWGG (disulfide I:9-I:18, II:9-II:18; linker I:C-II:C via X15) [PepSP1487]”: in assay [1] (setting [3]), the off-rate (koff) came out at 0.00042 s⁻¹. In addition, the on-rate (kon) in assay [1] (setting [4]) came out at 76000 M⁻¹ s⁻¹.

“[Ac-AETVEFWWCNGNSENWTCTW-GG-Ttds-K(Ttds-Ttds-PEG3)]2-PEG4-DBCO- [PepSP1583]”: the “binding to rhDLL3-Fc, complex half-life” value in assay [1] is listed as “tight rhDLL3-Fc binders with a stable complex half-life”.

For the molecule `CC(C)[C@H](NC(=O)[C@@H](NC(=O)[C@H](CCC(=O)O)NC(=O)[C@H](C)N)[C@@H](C)O)C(=O)N[C@@H](CCC(=O)O)C(=O)N[C@@H](Cc1ccccc1)C(=O)N[C@@H](Cc1c[nH]c2ccccc12)C(=O)N[C@@H](Cc1c[nH]c2ccccc12)C(=O)N[C@H]1CSSC[C@@H](C(=O)N[C@H](C(=O)N[C@@H](Cc2c[nH]c3ccccc23)C(N)=O)[C@@H](C)O)NC(=O)[C@H]([C@@H](C)O)NC(=O)[C@H](Cc2c[nH]c3ccccc23)NC(=O)[C@H](CC(N)=O)NC(=O)[C@H](CCC(=O)O)NC(=O)[C@H](CO)NC(=O)[C@H](CC(N)=O)NC(=O)CNC(=O)[C@H](CC(N)=O)NC1=O` [PepSP1171], the Kd worked out at 70 ± 19 nM in assay [2] (Table 4, global fitting 1:1 Langmuir, koff vs kon ratio, ± values from three independent experiments) and 70 nM in assay [1] (Table 8, curve fitting of SPR sensorgrams). Also, the residence time was 1.83 min in assay [2] (setting [5]) and 1 to 3 min in assay [2] (setting [6]). Moreover, the “binding mode to DLL3” value in assay [2] is on record as “dose-response saturable binding”. Moreover, the affinity result in assay [2] is on record as “double-digit nM range”. In addition, the off-rate (koff) in assay [1] (setting [3]) is 0.0097 s⁻¹. In addition, in assay [1] (setting [4]), the on-rate constant (kon) is 140000 M⁻¹ s⁻¹.

In the case of “Ac-AETVEFWWCNGNSENWTCTW-GG-Ttds-K(PEG4-DBCO-FEA)-NH2 (Ac-AETVEFWWCNGNSENWTCTWGG-{Ttds(3)-K(PEG4-DBCO-FEA)-NH2}; cysteine pairing not given here) [PepSP1538]”, the “binding to rhDLL3-Fc, complex half-life” value in assay [1] is recorded as “tight rhDLL3-Fc binders with a stable complex half-life”.

Regarding `CC(C)[C@H](NC(=O)[C@@H](NC(=O)[C@H](CCC(=O)O)NC(=O)[C@H](C)N)[C@@H](C)O)C(=O)N[C@@H](CCC(=O)O)C(=O)N[C@@H](Cc1ccccc1)C(=O)N[C@@H](Cc1ccc(O)cc1)C(=O)NCC(=O)N[C@H]1CSSC[C@@H](C(=O)N[C@H](C(=O)N[C@@H](Cc2c[nH]c3ccccc23)C(N)=O)[C@@H](C)O)NC(=O)[C@H]([C@@H](C)O)NC(=O)[C@H](Cc2ccc(O)cc2)NC(=O)[C@H](CCC(=O)O)NC(=O)[C@H](Cc2ccc(O)cc2)NC(=O)[C@H](C)NC(=O)[C@H](CC(=O)O)NC(=O)CNC(=O)[C@H]([C@@H](C)O)NC1=O` [PepSP1147] (H-AETVEFYGCTGDAYEYTCTW-NH2; disulfide 9-18; N-terminus assumed), the residence time is 1.09 min in assay [2] (setting [5]) and 1 to 3 min in assay [2] (setting [6]). Moreover, in assay [2], the “binding mode to DLL3” value is given as “dose-response saturable binding”. The affinity entry in assay [2] is “double-digit nM range”.

`C[C@@H](O)[C@@H]1NC(=O)CNC(=O)[C@H]([C@@H](C)O)NC(=O)[C@@H](NC(=O)CNC(=O)[C@@H](N)Cc2c[nH]c3ccccc23)CSSC[C@@H](C(=O)N[C@@H](Cc2c[nH]c3ccccc23)C(=O)N[C@@H](Cc2c[nH]c3ccccc23)C(N)=O)NC(=O)[C@H]([C@@H](C)O)NC(=O)[C@H](CCC(=O)O)NC(=O)[C@H](CC(N)=O)NC(=O)CNC(=O)[C@H](Cc2c[nH]c3ccccc23)NC1=O` [PepSP1213] (H-WGCTGTWGNETCWW-NH2; disulfide 3-12; N-terminus assumed): the residence time in assay [2] (setting [5]) is 0.0227 min.

Regarding “I: Ac-AETVEFWWCNGNSENWTCTWGG / II: Ac-AETVEFWWCNGNSENWTCTWGG (disulfide I:9-I:18, II:9-II:18; linker I:C-II:C via X8) [PepSP1488]”, the koff in assay [1] (setting [3]) was determined as 0.00031 s⁻¹. Moreover, the kon in assay [1] (setting [4]) stood at 120000 M⁻¹ s⁻¹.

`CC(C)[C@H](NC(=O)[C@@H]1CSSC[C@H](NC(=O)[C@H](Cc2ccc(O)cc2)NC(=O)[C@H](CC(=O)O)NC(=O)[C@H](Cc2ccccc2)NC(=O)[C@H](CCC(=O)O)NC(=O)[C@@H](NC(=O)[C@@H](NC(=O)[C@H](CCC(=O)O)NC(=O)[C@H](C)N)[C@@H](C)O)C(C)C)C(=O)N[C@@H](Cc2ccc(O)cc2)C(=O)NCC(=O)N[C@@H](CC(=O)O)C(=O)N[C@@H](C(C)C)C(=O)N[C@@H](CCC(=O)O)C(=O)N[C@@H](CCC(=O)O)C(=O)N[C@@H](Cc2c[nH]c3ccccc23)C(=O)N[C@@H]([C@@H](C)O)C(=O)N1)C(=O)N[C@@H](Cc1ccc(O)cc1)C(N)=O` [PepSP1166] (H-AETVEFDYCYGDVEEWTCVY-NH2; disulfide 9-18; N-terminus assumed): in assay [2] (setting [5]), the residence time was 0.8 min. Also, the “binding mode to DLL3” value in assay [2] is “dose-response saturable binding”.

The values are drawn from patent publication US20250074943A1, “DLL3 BINDING PEPTIDES AND USES THEREOF” (AMGEN INC., priority 2021, published 2025).
